# Experimental data from PubChem BioAssay (NCI).
#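 Results reflect a 48-hour exposure of cells in 96-well plates to compound at five concentrations. At the GI50, growth is halved. The concentration for full growth arrest is given as TGI.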
# Tests used:
# Test in all cases: DTP human tumour cell line panel, 48 h
# U251 CNS = tested on: U251 CNS
# NCI-H522 lung = tested on: NCI-H522 lung
# SN12C renal = tested on: SN12C renal
# OVCAR-8 ovarian = tested on: OVCAR-8 ovarian
# T-47D breast = tested on: T-47D breast
# 786-0 renal = tested on: 786-0 renal
# SF-268 CNS = tested on: SF-268 CNS
# SK-OV-3 ovarian = tested on: SK-OV-3 ovarian
# OVCAR-5 ovarian = tested on: OVCAR-5 ovarian
# SK-MEL-2 melanoma = tested on: SK-MEL-2 melanoma
# SW-620 colon = tested on: SW-620 colon
# HT29 colon = tested on: HT29 colon
# ACHN renal = tested on: ACHN renal
# KM12 colon = tested on: KM12 colon
# SF-295 CNS = tested on: SF-295 CNS
# MCF7 breast = tested on: MCF7 breast
# RXF 393 renal = tested on: RXF 393 renal
# A549 NSCLC = tested on: A549 NSCLC
# COLO 205 colon = tested on: COLO 205 colon
# UO-31 renal = tested on: UO-31 renal
# HCT-116 colon = tested on: HCT-116 colon
# MDA-MB-435 = tested on: MDA-MB-435
# OVCAR-4 ovarian = tested on: OVCAR-4 ovarian
# PC-3 prostate = tested on: PC-3 prostate
# SK-MEL-5 melanoma = tested on: SK-MEL-5 melanoma
# HOP-92 NSCLC = tested on: HOP-92 NSCLC
# HCC-2998 colon = tested on: HCC-2998 colon
# K-562 leukemia = tested on: K-562 leukemia
# HOP-62 NSCLC = tested on: HOP-62 NSCLC
# MALME-3M melanoma = tested on: MALME-3M melanoma
# CAKI-1 renal = tested on: CAKI-1 renal
# M14 melanoma = tested on: M14 melanoma
# HCT-15 colon = tested on: HCT-15 colon
# NCI-H460 lung = tested on: NCI-H460 lung
# A498 renal = tested on: A498 renal
# UACC-62 melanoma = tested on: UACC-62 melanoma
# MOLT-4 leukemia = tested on: MOLT-4 leukemia
# RPMI-8226 leukemia = tested on: RPMI-8226 leukemia
# SF-539 CNS = tested on: SF-539 CNS
# MDA-N = tested on: MDA-N
# NCI-H23 lung = tested on: NCI-H23 lung
# NCI/ADR-RES ovarian = tested on: NCI/ADR-RES ovarian
# SK-MEL-28 melanoma = tested on: SK-MEL-28 melanoma
# DU-145 prostate = tested on: DU-145 prostate
# OVCAR-3 ovarian = tested on: OVCAR-3 ovarian
# MDA-MB-231 breast = tested on: MDA-MB-231 breast
# SNB-19 CNS = tested on: SNB-19 CNS
# UACC-257 melanoma = tested on: UACC-257 melanoma
# CCRF-CEM leukemia = tested on: CCRF-CEM leukemia
# HS 578T breast = tested on: HS 578T breast
# IGROV1 ovarian = tested on: IGROV1 ovarian
# HL-60(TB) leukemia = tested on: HL-60(TB) leukemia
# TK-10 renal = tested on: TK-10 renal
# SR leukemia = tested on: SR leukemia
# SNB-75 CNS = tested on: SNB-75 CNS
# EKVX NSCLC = tested on: EKVX NSCLC
# LOX IMVI melanoma = tested on: LOX IMVI melanoma
# NCI-H226 lung = tested on: NCI-H226 lung
# BT-549 breast = tested on: BT-549 breast
structure (smiles),measurement,setting,value
CC1(C)O[C@@H]2[C@@H](COC(C)(C)O[C@H]2C2SCCCS2)O1,TGI,U251 CNS,> 100 µM
same,TGI,NCI-H522 lung,> 100 µM
same,TGI,SN12C renal,> 100 µM
same,TGI,OVCAR-8 ovarian,> 100 µM
same,TGI,T-47D breast,> 100 µM
same,TGI,786-0 renal,> 100 µM
same,TGI,SF-268 CNS,> 100 µM
same,TGI,SK-OV-3 ovarian,> 100 µM
same,TGI,OVCAR-5 ovarian,> 100 µM
same,TGI,SK-MEL-2 melanoma,> 100 µM
same,TGI,SW-620 colon,> 100 µM
same,TGI,HT29 colon,> 100 µM
same,TGI,ACHN renal,> 100 µM
same,TGI,KM12 colon,> 100 µM
same,TGI,SF-295 CNS,> 100 µM
same,TGI,MCF7 breast,> 100 µM
same,TGI,RXF 393 renal,> 100 µM
same,TGI,A549 NSCLC,> 100 µM
same,TGI,COLO 205 colon,> 100 µM
same,TGI,UO-31 renal,> 100 µM
same,TGI,HCT-116 colon,> 100 µM
same,TGI,MDA-MB-435,> 100 µM
same,TGI,OVCAR-4 ovarian,> 100 µM
same,TGI,PC-3 prostate,> 100 µM
same,TGI,SK-MEL-5 melanoma,> 100 µM
same,TGI,HOP-92 NSCLC,> 100 µM
same,TGI,HCC-2998 colon,> 100 µM
same,TGI,K-562 leukemia,> 100 µM
same,TGI,HOP-62 NSCLC,> 100 µM
same,TGI,MALME-3M melanoma,> 100 µM
same,TGI,CAKI-1 renal,> 100 µM
same,TGI,M14 melanoma,> 100 µM
same,TGI,HCT-15 colon,> 100 µM
same,TGI,NCI-H460 lung,> 100 µM
same,TGI,A498 renal,> 100 µM
same,TGI,UACC-62 melanoma,> 100 µM
same,TGI,MOLT-4 leukemia,> 100 µM
same,TGI,RPMI-8226 leukemia,> 100 µM
same,TGI,SF-539 CNS,> 100 µM
same,TGI,MDA-N,> 100 µM
same,TGI,NCI-H23 lung,> 100 µM
same,TGI,NCI/ADR-RES ovarian,> 100 µM
same,TGI,SK-MEL-28 melanoma,> 100 µM
same,TGI,DU-145 prostate,> 100 µM
same,TGI,OVCAR-3 ovarian,> 100 µM
same,TGI,MDA-MB-231 breast,> 100 µM
same,TGI,SNB-19 CNS,> 100 µM
c1cc(-c2ccc(-c3ccsc3)s2)cs1,TGI,U251 CNS,49.7 µM
same,TGI,NCI-H522 lung,> 100 µM
same,TGI,SN12C renal,> 100 µM
same,TGI,OVCAR-8 ovarian,> 100 µM
same,TGI,T-47D breast,> 100 µM
same,TGI,UACC-257 melanoma,> 100 µM
same,TGI,786-0 renal,> 100 µM
same,TGI,SF-268 CNS,> 100 µM
same,TGI,SK-OV-3 ovarian,> 100 µM
same,TGI,CCRF-CEM leukemia,44.4 µM
same,TGI,OVCAR-5 ovarian,> 100 µM
same,TGI,SW-620 colon,> 100 µM
same,TGI,HT29 colon,> 100 µM
same,TGI,ACHN renal,> 100 µM
same,TGI,SF-295 CNS,> 100 µM
same,TGI,MCF7 breast,> 100 µM
same,TGI,RXF 393 renal,> 100 µM
same,TGI,A549 NSCLC,64.5 µM
same,TGI,HS 578T breast,> 100 µM
same,TGI,COLO 205 colon,> 100 µM
same,TGI,UO-31 renal,98.4 µM
same,TGI,HCT-116 colon,> 100 µM
same,TGI,MDA-MB-435,> 100 µM
same,TGI,OVCAR-4 ovarian,57.5 µM
same,TGI,IGROV1 ovarian,> 100 µM
same,TGI,SK-MEL-5 melanoma,> 100 µM
same,TGI,HL-60(TB) leukemia,67 µM
same,TGI,HOP-92 NSCLC,> 100 µM
same,TGI,HCC-2998 colon,> 100 µM
same,TGI,K-562 leukemia,> 100 µM
same,TGI,HOP-62 NSCLC,> 100 µM
same,TGI,TK-10 renal,> 100 µM
same,TGI,CAKI-1 renal,> 100 µM
same,TGI,M14 melanoma,> 100 µM
same,TGI,SR leukemia,> 100 µM
same,TGI,HCT-15 colon,> 100 µM
same,TGI,NCI-H460 lung,> 100 µM
same,TGI,A498 renal,> 100 µM
same,TGI,UACC-62 melanoma,> 100 µM
same,TGI,MOLT-4 leukemia,> 100 µM
same,TGI,RPMI-8226 leukemia,> 100 µM
same,TGI,SF-539 CNS,89.8 µM
same,TGI,SNB-75 CNS,76.4 µM
same,TGI,MDA-N,> 100 µM
same,TGI,NCI-H23 lung,61 µM
same,TGI,NCI/ADR-RES ovarian,87.5 µM
same,TGI,DU-145 prostate,> 100 µM
same,TGI,OVCAR-3 ovarian,> 100 µM
same,TGI,EKVX NSCLC,> 100 µM
same,TGI,LOX IMVI melanoma,> 100 µM
same,TGI,NCI-H226 lung,98.7 µM
Fc1ccc(NC(c2ccc(F)cc2)C2CCN(CCCCc3ccccc3)CC2)cc1 (configuration not stated),GI50,U251 CNS,1.67 µM
same,TGI,U251 CNS,3.06 µM
same,GI50,NCI-H522 lung,1.65 µM
same,TGI,NCI-H522 lung,3.47 µM
same,GI50,SN12C renal,1.77 µM
same,TGI,SN12C renal,3.37 µM
same,GI50,OVCAR-8 ovarian,2.05 µM
same,TGI,OVCAR-8 ovarian,4.19 µM
same,GI50,T-47D breast,1.65 µM
same,TGI,T-47D breast,3.62 µM
same,GI50,UACC-257 melanoma,1.97 µM
same,TGI,UACC-257 melanoma,3.79 µM
same,GI50,786-0 renal,1.47 µM
same,TGI,786-0 renal,2.84 µM
same,GI50,SF-268 CNS,1.68 µM
same,TGI,SF-268 CNS,3.83 µM
same,GI50,SK-OV-3 ovarian,1.86 µM
same,TGI,SK-OV-3 ovarian,3.94 µM
same,GI50,CCRF-CEM leukemia,3.62 µM
same,TGI,CCRF-CEM leukemia,9.12 µM
same,GI50,OVCAR-5 ovarian,1.7 µM
same,TGI,OVCAR-5 ovarian,4.04 µM
same,GI50,SK-MEL-2 melanoma,1.81 µM
same,TGI,SK-MEL-2 melanoma,3.54 µM
same,GI50,SW-620 colon,1.26 µM
same,TGI,SW-620 colon,2.57 µM
same,GI50,HT29 colon,1.4 µM
same,TGI,HT29 colon,3.03 µM
same,GI50,BT-549 breast,1.55 µM
same,TGI,BT-549 breast,2.97 µM
same,GI50,ACHN renal,1.68 µM
same,TGI,ACHN renal,3.05 µM
same,GI50,KM12 colon,1.85 µM
same,TGI,KM12 colon,3.67 µM
same,GI50,SF-295 CNS,1.49 µM
same,TGI,SF-295 CNS,2.86 µM
same,GI50,MCF7 breast,1.64 µM
same,TGI,MCF7 breast,3.24 µM
same,GI50,RXF 393 renal,1.72 µM
same,TGI,RXF 393 renal,3.17 µM
same,GI50,A549 NSCLC,1.91 µM
same,TGI,A549 NSCLC,3.73 µM
same,GI50,HS 578T breast,1.7 µM
same,TGI,HS 578T breast,3.9 µM
same,GI50,COLO 205 colon,1.6 µM
same,TGI,COLO 205 colon,3.2 µM
same,GI50,UO-31 renal,1.08 µM
same,TGI,UO-31 renal,2.43 µM
same,GI50,HCT-116 colon,1.41 µM
same,TGI,HCT-116 colon,2.75 µM
same,GI50,MDA-MB-435,1.6 µM
same,TGI,MDA-MB-435,2.95 µM
same,GI50,OVCAR-4 ovarian,1.41 µM
same,TGI,OVCAR-4 ovarian,3.22 µM
same,GI50,IGROV1 ovarian,2.18 µM
same,TGI,IGROV1 ovarian,5.17 µM
same,GI50,PC-3 prostate,1.82 µM
same,TGI,PC-3 prostate,3.76 µM
same,GI50,SK-MEL-5 melanoma,1.63 µM
same,TGI,SK-MEL-5 melanoma,3.1 µM
same,GI50,HL-60(TB) leukemia,1.24 µM
same,TGI,HL-60(TB) leukemia,3.54 µM
same,GI50,HOP-92 NSCLC,1.31 µM
same,TGI,HOP-92 NSCLC,3.41 µM
same,GI50,HCC-2998 colon,1.76 µM
same,TGI,HCC-2998 colon,3.31 µM
same,GI50,K-562 leukemia,2.07 µM
same,TGI,K-562 leukemia,4.96 µM
same,GI50,HOP-62 NSCLC,1.45 µM
same,TGI,HOP-62 NSCLC,3 µM
same,GI50,MALME-3M melanoma,1.4 µM
same,TGI,MALME-3M melanoma,2.88 µM
same,GI50,TK-10 renal,2.07 µM
same,TGI,TK-10 renal,5.34 µM
same,GI50,M14 melanoma,1.59 µM
same,TGI,M14 melanoma,3.2 µM
same,GI50,SR leukemia,1.57 µM
same,TGI,SR leukemia,3.89 µM
same,GI50,HCT-15 colon,1.45 µM
same,TGI,HCT-15 colon,2.89 µM
same,GI50,NCI-H460 lung,1.71 µM
same,TGI,NCI-H460 lung,3.09 µM
same,GI50,A498 renal,0.671 µM
same,TGI,A498 renal,2.21 µM
same,GI50,UACC-62 melanoma,1.83 µM
same,TGI,UACC-62 melanoma,3.46 µM
same,GI50,MOLT-4 leukemia,1.74 µM
same,TGI,MOLT-4 leukemia,4.37 µM
same,GI50,RPMI-8226 leukemia,2.17 µM
same,TGI,RPMI-8226 leukemia,4.78 µM
same,GI50,SF-539 CNS,1.71 µM
same,TGI,SF-539 CNS,3.1 µM
same,GI50,SNB-75 CNS,1.11 µM
same,TGI,SNB-75 CNS,2.43 µM
same,GI50,NCI-H23 lung,1.78 µM
same,TGI,NCI-H23 lung,3.86 µM
same,GI50,NCI/ADR-RES ovarian,1.7 µM
same,TGI,NCI/ADR-RES ovarian,3.45 µM
same,GI50,SK-MEL-28 melanoma,1.76 µM
same,TGI,SK-MEL-28 melanoma,3.28 µM
same,GI50,DU-145 prostate,1.77 µM
same,TGI,DU-145 prostate,3.86 µM
same,GI50,OVCAR-3 ovarian,1.57 µM
same,TGI,OVCAR-3 ovarian,2.91 µM
same,GI50,MDA-MB-231 breast,1.58 µM
same,TGI,MDA-MB-231 breast,3.13 µM
same,GI50,EKVX NSCLC,1.7 µM
same,TGI,EKVX NSCLC,4.42 µM
same,GI50,SNB-19 CNS,1.99 µM
same,TGI,SNB-19 CNS,4.9 µM
same,GI50,LOX IMVI melanoma,1.55 µM
same,TGI,LOX IMVI melanoma,2.89 µM
same,GI50,NCI-H226 lung,1.78 µM
same,TGI,NCI-H226 lung,3.6 µM
